Test results as given in ChEMBL document CHEMBL5726098, “Arylquinazolines” (2019).

Biological target: DNA-dependent protein kinase catalytic subunit (Homo sapiens, UniProt P78527)
Assay: DNA-PK Assay (Biochemical): The kinase assay was carried out in streptavidin-coated […] microtitre flashplates. […] The reaction was stopped using 50 μl/well of 200 mM EDTA. After incubation for a further 30 min at room temperature, the liquid was removed. Each well was washed three times with 100 μl of 0.9% saline solution. A nonspecific reaction (blank value) was determined using 10 μM of an innate kinase inhibitor. The radioactivity measurement was carried out using a TopCount. IC50 values were calculated in RS1.

DNA-dependent protein kinase catalytic subunit, sequence (P78527 whole entry): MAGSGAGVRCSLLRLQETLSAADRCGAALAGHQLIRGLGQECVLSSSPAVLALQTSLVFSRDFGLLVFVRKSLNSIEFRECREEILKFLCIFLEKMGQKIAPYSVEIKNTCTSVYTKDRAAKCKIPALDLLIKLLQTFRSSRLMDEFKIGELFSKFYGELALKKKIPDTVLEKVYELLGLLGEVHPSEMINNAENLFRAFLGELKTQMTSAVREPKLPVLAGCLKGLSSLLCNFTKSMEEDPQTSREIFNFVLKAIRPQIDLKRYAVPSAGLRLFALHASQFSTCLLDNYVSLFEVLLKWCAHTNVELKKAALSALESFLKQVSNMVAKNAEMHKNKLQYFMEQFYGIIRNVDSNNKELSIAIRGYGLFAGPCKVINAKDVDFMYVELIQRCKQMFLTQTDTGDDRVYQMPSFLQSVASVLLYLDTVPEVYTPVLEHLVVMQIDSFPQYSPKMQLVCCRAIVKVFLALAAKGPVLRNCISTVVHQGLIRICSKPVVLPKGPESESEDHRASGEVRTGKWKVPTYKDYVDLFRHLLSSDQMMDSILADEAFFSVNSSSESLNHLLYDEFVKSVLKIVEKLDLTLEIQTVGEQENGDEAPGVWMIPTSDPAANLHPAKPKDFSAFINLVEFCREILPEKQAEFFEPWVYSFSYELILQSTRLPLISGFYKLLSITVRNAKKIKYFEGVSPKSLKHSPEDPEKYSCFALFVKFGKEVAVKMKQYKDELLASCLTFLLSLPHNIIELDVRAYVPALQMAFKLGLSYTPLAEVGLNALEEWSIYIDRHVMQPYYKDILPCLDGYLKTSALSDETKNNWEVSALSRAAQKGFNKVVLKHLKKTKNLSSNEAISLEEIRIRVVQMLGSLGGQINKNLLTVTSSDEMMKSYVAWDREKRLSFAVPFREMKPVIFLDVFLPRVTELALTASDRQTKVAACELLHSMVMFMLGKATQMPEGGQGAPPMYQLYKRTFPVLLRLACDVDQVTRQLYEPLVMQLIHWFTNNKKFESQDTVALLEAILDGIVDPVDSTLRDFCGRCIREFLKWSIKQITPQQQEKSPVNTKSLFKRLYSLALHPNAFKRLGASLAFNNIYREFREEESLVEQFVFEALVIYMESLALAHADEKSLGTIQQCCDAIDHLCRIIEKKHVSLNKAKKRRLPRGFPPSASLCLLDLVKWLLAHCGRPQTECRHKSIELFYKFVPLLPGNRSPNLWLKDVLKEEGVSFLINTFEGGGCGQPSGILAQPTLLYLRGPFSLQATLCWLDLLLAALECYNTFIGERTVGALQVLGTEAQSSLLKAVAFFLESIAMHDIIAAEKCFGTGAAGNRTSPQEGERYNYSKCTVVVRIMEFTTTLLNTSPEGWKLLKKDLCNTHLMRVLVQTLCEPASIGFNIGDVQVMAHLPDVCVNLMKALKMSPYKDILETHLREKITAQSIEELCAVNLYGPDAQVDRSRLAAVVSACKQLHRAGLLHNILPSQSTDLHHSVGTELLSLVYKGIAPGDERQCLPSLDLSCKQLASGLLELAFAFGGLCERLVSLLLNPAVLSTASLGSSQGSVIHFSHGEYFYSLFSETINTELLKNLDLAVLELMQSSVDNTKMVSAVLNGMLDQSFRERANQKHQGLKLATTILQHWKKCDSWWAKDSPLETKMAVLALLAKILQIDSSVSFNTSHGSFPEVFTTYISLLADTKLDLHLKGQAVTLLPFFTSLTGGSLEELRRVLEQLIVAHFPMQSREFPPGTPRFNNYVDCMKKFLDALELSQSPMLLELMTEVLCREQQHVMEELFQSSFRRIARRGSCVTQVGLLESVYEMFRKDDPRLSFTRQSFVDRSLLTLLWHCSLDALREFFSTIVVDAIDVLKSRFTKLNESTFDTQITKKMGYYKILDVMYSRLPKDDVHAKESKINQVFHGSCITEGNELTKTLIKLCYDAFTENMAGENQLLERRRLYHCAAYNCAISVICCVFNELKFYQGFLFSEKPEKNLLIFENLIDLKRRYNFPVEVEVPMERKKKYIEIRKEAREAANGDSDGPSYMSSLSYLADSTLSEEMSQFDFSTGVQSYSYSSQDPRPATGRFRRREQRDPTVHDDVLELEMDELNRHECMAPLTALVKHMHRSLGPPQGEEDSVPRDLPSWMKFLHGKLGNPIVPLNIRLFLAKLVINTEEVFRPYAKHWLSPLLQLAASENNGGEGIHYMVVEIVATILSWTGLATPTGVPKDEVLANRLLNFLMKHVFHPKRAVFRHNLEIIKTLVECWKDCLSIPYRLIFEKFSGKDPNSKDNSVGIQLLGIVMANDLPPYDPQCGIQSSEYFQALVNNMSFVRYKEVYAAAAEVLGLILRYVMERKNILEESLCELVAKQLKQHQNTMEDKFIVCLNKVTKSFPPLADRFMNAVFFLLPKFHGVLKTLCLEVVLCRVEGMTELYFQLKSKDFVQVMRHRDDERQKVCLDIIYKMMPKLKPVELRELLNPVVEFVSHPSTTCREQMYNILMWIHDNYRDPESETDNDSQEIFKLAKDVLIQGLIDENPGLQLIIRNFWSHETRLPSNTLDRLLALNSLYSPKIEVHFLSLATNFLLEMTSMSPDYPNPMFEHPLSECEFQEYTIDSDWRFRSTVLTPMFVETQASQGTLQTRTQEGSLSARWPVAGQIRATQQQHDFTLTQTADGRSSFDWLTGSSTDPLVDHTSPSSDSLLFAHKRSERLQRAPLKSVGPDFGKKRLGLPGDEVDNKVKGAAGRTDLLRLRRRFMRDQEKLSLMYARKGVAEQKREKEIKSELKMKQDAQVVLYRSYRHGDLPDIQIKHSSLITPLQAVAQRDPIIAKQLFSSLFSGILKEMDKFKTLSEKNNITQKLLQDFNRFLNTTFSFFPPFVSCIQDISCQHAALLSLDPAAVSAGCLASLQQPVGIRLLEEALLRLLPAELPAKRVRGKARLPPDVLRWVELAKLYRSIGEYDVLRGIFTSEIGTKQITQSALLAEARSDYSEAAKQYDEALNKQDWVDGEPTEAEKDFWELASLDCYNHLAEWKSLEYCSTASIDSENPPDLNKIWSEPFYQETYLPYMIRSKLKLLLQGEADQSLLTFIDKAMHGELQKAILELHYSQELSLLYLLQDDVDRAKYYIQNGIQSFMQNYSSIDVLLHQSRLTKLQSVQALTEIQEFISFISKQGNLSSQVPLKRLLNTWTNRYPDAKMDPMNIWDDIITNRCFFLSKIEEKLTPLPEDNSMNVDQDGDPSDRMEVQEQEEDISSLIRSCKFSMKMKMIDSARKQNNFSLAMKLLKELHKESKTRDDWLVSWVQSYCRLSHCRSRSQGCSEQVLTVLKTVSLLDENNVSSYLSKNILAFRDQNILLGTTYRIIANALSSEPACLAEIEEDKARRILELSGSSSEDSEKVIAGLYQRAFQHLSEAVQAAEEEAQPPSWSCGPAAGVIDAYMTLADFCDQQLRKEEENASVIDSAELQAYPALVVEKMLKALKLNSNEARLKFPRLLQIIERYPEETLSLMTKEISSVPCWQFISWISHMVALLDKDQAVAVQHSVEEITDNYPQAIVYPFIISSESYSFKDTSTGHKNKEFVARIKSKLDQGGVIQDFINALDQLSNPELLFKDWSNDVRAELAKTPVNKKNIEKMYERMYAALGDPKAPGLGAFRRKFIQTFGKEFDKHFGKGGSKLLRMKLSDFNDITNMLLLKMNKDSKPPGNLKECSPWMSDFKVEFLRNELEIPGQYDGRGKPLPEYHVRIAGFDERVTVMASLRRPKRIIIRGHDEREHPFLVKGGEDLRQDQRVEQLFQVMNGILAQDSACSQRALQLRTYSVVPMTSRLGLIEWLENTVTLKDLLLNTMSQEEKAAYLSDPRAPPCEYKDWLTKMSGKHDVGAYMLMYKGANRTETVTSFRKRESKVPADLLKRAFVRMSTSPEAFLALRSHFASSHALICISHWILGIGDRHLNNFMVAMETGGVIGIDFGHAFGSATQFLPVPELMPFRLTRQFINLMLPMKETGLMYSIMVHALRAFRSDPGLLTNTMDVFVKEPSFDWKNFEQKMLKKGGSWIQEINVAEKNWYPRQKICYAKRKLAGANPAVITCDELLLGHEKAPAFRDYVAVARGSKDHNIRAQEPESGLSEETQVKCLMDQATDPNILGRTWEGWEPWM

SMILES	IC50
NC(=O)C(c1cc(-c2ncnc3cc(N4CCOCC4)ccc23)c(F)cc1Cl)c1ncnn2cccc12 (configuration not stated)	> 30 nM
OCc1csc(C(O)c2cc(-c3ncnc4cc(N5C6CCC5COC6)ccc34)c(F)cc2Cl)n1 (configuration not stated)	> 30 nM
